Experiments:
Assay type in all cases: cell-based
Pseudomonas aeruginosa = experiment: Detection of pyroglutamyl peptidase activity (example 10), colony coloration; conditions: between 24 and 48 h of incubation, no accession No.
[1] = system: Acinetobacter baumannii ATCC 19606; experiment: as above; conditions: between 24 and 48 h of incubation; strain ATCC 19606
Ralstonia basilensis = conditions: between 24 and 48 h of incubation
[2] = system: Pseudomonas fragilis NCIMB 8987; experiment: Detection of pyroglutamyl peptidase activity (example 10), colony coloration; conditions: between 24 and 48 h of incubation; strain NCIMB 8987
[3] = system: Burkholderia cepacia GIII LMG 18832; experiment: as above; conditions: between 24 and 48 h of incubation; strain LMG 18832
Ralstonia taiwanensis = conditions: between 24 and 48 h of incubation
Pseudomonas fluorescens = experiment: Detection of pyroglutamyl peptidase activity (example 10), colony coloration; conditions: between 24 and 48 h of incubation
[4] = system: Acinetobacter calcoaceticus; experiment: as above; conditions: between 24 and 48 h of incubation
[5] = system: Burkholderia cepacia GI LMG1222; experiment: as above; conditions: between 24 and 48 h of incubation; strain LMG1222
Pseudomonas maltophilia = experiment: as above; conditions: between 24 and 48 h of incubation
[6] = first P. aeruginosa strain of table 3 (r6)
[7] = second P. aeruginosa strain of table 3 (r8)
[8] = third P. aeruginosa strain of table 3 (r10)

Question: How did the coloration (Pseudomonas aeruginosa; [6]) turn out when `CCCCCc1c2nc3ccc(NC(=O)[C@@H]4CCC(=O)N4)cc3oc-2cc(=O)c1Cl` [Chlorinated pyroglutamyl compound, 7-N-(L-pyroglutamyl)amino-2-chloro-1-pentylphenoxazin-3-one] was run?
Answer: Its coloration is “purple”.

Question: What about the coloration (Pseudomonas aeruginosa; [7]) of the same molecule?
Answer: The coloration was “purple”.

Question: And the coloration (Pseudomonas aeruginosa; [8])?
Answer: Its coloration is “purple”.

Question: What about the coloration [1] of the same molecule?
Answer: The coloration was “colorless”.

Question: And the coloration (Ralstonia basilensis)?
Answer: Its coloration is “colorless”.

Question: And the coloration [2]?
Answer: Its coloration is “colorless”.

Question: What about the coloration [3] of the same molecule?
Answer: Its coloration is “yellow”.

Question: What about the coloration (Ralstonia taiwanensis) of the same molecule?
Answer: Its coloration is “colorless”.

Question: And the coloration (Pseudomonas fluorescens)?
Answer: Its coloration is “colorless”.

Question: And the coloration [4]?
Answer: The coloration was “colorless”.

Question: What about the coloration [5] of the same molecule?
Answer: Its coloration is “yellow”.

Question: What about the coloration (Pseudomonas maltophilia) of the same molecule?
Answer: Its coloration is “colorless”.

Question: For `CCCCCc1cc(=O)cc2oc3cc(NC(=O)[C@@H]4CCC(=O)N4)ccc3nc1-2` [Nonchlorinated pyroglutamyl compound, 7-N-(L-pyroglutamyl)amino-1-pentylphenoxazin-3-one], which coloration (Pseudomonas aeruginosa; [6]) is on record?
Answer: The coloration was “purple”.

Question: And the coloration (Pseudomonas aeruginosa; [7])?
Answer: Its coloration is “purple”.

Question: What about the coloration (Pseudomonas aeruginosa; [8]) of the same molecule?
Answer: The coloration was “purple”.

Question: And the coloration [1]?
Answer: The coloration was “colorless”.

Question: And the coloration (Ralstonia basilensis)?
Answer: Its coloration is “colorless”.

Question: And the coloration [2]?
Answer: Its coloration is “colorless”.

Question: And the coloration [3]?
Answer: The coloration was “yellow”.

Question: What about the coloration (Ralstonia taiwanensis) of the same molecule?
Answer: Its coloration is “colorless”.

Question: And the coloration (Pseudomonas fluorescens)?
Answer: The coloration was “colorless”.

Question: What about the coloration [4] of the same molecule?
Answer: Its coloration is “colorless”.

Question: What about the coloration [5] of the same molecule?
Answer: The coloration was “yellow”.

Question: What about the coloration (Pseudomonas maltophilia) of the same molecule?
Answer: The coloration was “colorless”.
